PubChem BioAssay AID180 (DTP/NCI, 2004)
“And” between values parts separate entries of the source, which are not always exact repeats. Equal values may be shown once.

Tested on: BDF1 mice, Adenocarcinoma 755 s.c., tumor weight T/C
Assay: NCI In Vivo Anticancer Drug Screen. Data for tumor model Adenocarcinoma 755 (subcutaneous) in B6D2F1 (BDF1) mice
Details: endpoint: mean tumor weight, higher = larger tumour
Summary of the method: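 Values express treated (T) relative to vehicle-dosed control (C) animals, based on survival or tumour size measured after compound treatment of mice bearing a transplanted tumour.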

[1] = dose: 15.0 mg/kg/injection, schedule: Q01DX011 (ip), vehicle: methylcellulose (MC)
[2] = dose: 31.0 mg/kg/injection, schedule: Q01DX011 (ip), vehicle: methylcellulose (MC)
[3] = dose: 62.0 mg/kg/injection, schedule: Q01DX011 (ip), vehicle: methylcellulose (MC)
[4] = dose: 125.0 mg/kg/injection, schedule: Q01DX011 (ip), vehicle: methylcellulose (MC)
[5] = dose: 250.0 mg/kg/injection, schedule: Q01DX011 (ip), vehicle: methylcellulose (MC)
[6] = dose: 75.0 mg/kg/injection, schedule: Q01DX011 (ip), vehicle: methylcellulose (MC)

In the case of `COc1ccc(-c2c(C)c(C(=O)O)nc(-c3ccc4c(O)c(OC)c5c(c4n3)=NC(C)(C)N=5)c2N)c(O)c1OC`, the T/C (dose: 2.5 mg/kg/injection, schedule: Q01DX011 (ip), vehicle: water) is reported as 26 % of control, the T/C (dose: 2.5 mg/kg/injection, schedule: Q01DX011 (oral), vehicle: water) is reported as 6 % of control and the T/C (dose: 2.5 mg/kg/injection, schedule: Q## X006 (ip), vehicle: water) is reported as 59 % of control. For the same compound, the T/C (dose: 2.5 mg/kg/injection, schedule: Q## X006 (oral), vehicle: water) was 43 % of control, the T/C (dose: 2.5 mg/kg/injection, schedule: Q#A X022 (ip), vehicle: water) was 51 % of control and the T/C (dose: 5.0 mg/kg/injection, schedule: Q01DX005 (iv), vehicle: water) was 58 % of control. For the same compound, the T/C (dose: 5.0 mg/kg/injection, schedule: Q01DX006 (ip), vehicle: water) was 64 % of control, the T/C (dose: 5.0 mg/kg/injection, schedule: Q01DX011 (im), vehicle: water) was 64 % of control and the T/C (dose: 5.0 mg/kg/injection, schedule: Q01DX011 (ip), vehicle: water) was 5 % of control. The T/C (dose: 5.0 mg/kg/injection, schedule: Q01DX011 (oral), vehicle: water) was 2 % of control, the T/C (dose: 5.0 mg/kg/injection, schedule: Q01DX011 (sc), vehicle: water) was 13 % of control and the T/C (dose: 5.0 mg/kg/injection, schedule: Q## X006 (ip), vehicle: water) was 57 % of control. The T/C (dose: 5.0 mg/kg/injection, schedule: Q## X006 (oral), vehicle: water) was 79 % of control, the T/C (dose: 5.0 mg/kg/injection, schedule: Q#A X022 (ip), vehicle: water) was 21 % of control and the T/C (dose: 7.5 mg/kg/injection, schedule: Q01DX006 (ip), vehicle: water) was 63 % of control. For the same compound, the T/C (dose: 7.5 mg/kg/injection, schedule: Q#A X022 (ip), vehicle: water) was 9 % of control, the T/C (dose: 8.0 mg/kg/injection, schedule: Q01DX011 (ip), vehicle: water) was 50 % of control and the T/C (dose: 10.0 mg/kg/injection, schedule: Q01DX005 (iv), vehicle: water) was 26 % of control. For the same compound, the T/C (dose: 10.0 mg/kg/injection, schedule: Q01DX006 (ip), vehicle: water) was 28 % of control, the T/C (dose: 10.0 mg/kg/injection, schedule: Q01DX011 (im), vehicle: water) was 13 % of control and the T/C (dose: 10.0 mg/kg/injection, schedule: Q01DX011 (sc), vehicle: water) was 15 % of control. The T/C (dose: 10.0 mg/kg/injection, schedule: Q## X006 (ip), vehicle: water) was 19 % of control, the T/C (dose: 10.0 mg/kg/injection, schedule: Q## X006 (oral), vehicle: water) was 44 % of control and the T/C (dose: 12.0 mg/kg/injection, schedule: Q03DX004 (ip), vehicle: water) was 62 % of control. The T/C (dose: 13.0 mg/kg/injection, schedule: Q01DX011 (ip), vehicle: water) was 10 % of control, the T/C (dose: 15.0 mg/kg/injection, schedule: Q01DX005 (iv), vehicle: water) was 6 % of control and the T/C (dose: 15.0 mg/kg/injection, schedule: Q01DX011 (im), vehicle: water) was 10 % of control. For the same compound, the T/C (dose: 15.0 mg/kg/injection, schedule: Q01DX011 (sc), vehicle: water) was 4 % of control, the T/C (dose: 18.0 mg/kg/injection, schedule: Q03DX004 (ip), vehicle: water) was 38 % of control and the T/C (dose: 20.0 mg/kg/injection, schedule: Q01DX011 (ip), vehicle: water) was 6 % of control. The T/C (dose: 20.0 mg/kg/injection, schedule: Q## X006 (ip), vehicle: water) was 39 % of control, the T/C (dose: 20.0 mg/kg/injection, schedule: Q## X006 (oral), vehicle: water) was 20 % of control and the T/C (dose: 22.0 mg/kg/injection, schedule: Q07DX002 (ip), vehicle: water) was 48 % of control. The T/C (dose: 22.5 mg/kg/injection, schedule: Q01DX005 (iv), vehicle: water) was 2 % of control, the T/C (dose: 22.5 mg/kg/injection, schedule: Q01DX011 (im), vehicle: water) was 1 % of control and the T/C (dose: 27.0 mg/kg/injection, schedule: Q03DX004 (ip), vehicle: water) was 4 % of control. For the same compound, the T/C (dose: 34.0 mg/kg/injection, schedule: Q01DX001 (ip), vehicle: water) was 45 % of control and 50 % of control, the T/C (dose: 35.0 mg/kg/injection, schedule: Q07DX002 (ip), vehicle: water) was 55 % of control and the T/C (dose: 44.0 mg/kg/injection, schedule: Q01DX001 (ip), vehicle: water) was 52 % of control and 57 % of control. For the same compound, the T/C (dose: 50.0 mg/kg/injection, schedule: Q07DX002 (ip), vehicle: water) was 8 % of control and the T/C (dose: 67.0 mg/kg/injection, schedule: Q01DX001 (ip), vehicle: water) was 18 % of control.
With `Cc1ccccc1Nc1nc(N)nc(C)c1Br` the T/C [1] was 55 % of control, the T/C [2] was 88 % of control and the T/C [3] was 106 % of control. For the same compound, the T/C [4] was 72 % of control and the T/C [5] was 81 % of control.
In the case of `CCCCCCCCCCCCCCCCCCNC`, the T/C (dose: 14.0 mg/kg/injection, schedule: Q01DX011 (ip), vehicle: carboxymethylcellulose (CMC)) is reported as 77 % of control.
In the case of `Nc1nc2nc(/N=N/SCCC(=O)O)[nH]c2c(=O)[nH]1`, the T/C (dose: 37.5 mg/kg/injection, schedule: Q01DX011 (ip), vehicle: methylcellulose (MC)) is reported as 54 % of control and the T/C [6] is reported as 45 % of control.
In the case of `CN(Cc1cnc2nc(NCNC(=O)C3=C(O)[C@@]4(O)C(=O)C5=C(O)c6c(O)cccc6[C@@](C)(O)[C@H]5C[C@H]4[C@H](N(C)C)C3=O)nc(N)c2n1)c1ccc(C(=O)NC(CCC(=O)O)C(=O)O)cc1` (some centres not stated), the T/C (dose: 1.5 mg/kg/injection, schedule: Q01DX011 (ip), vehicle: saline) is reported as 109 % of control, the T/C (dose: 3.0 mg/kg/injection, schedule: Q01DX011 (ip), vehicle: saline) is reported as 103 % of control and the T/C (dose: 6.0 mg/kg/injection, schedule: Q01DX011 (ip), vehicle: saline) is reported as 69 % of control.
In the case of `CSc1ncnc2c1ncn2C1CCCS1` (configuration not stated), the T/C (dose: 25.0 mg/kg/injection, schedule: Q01DX011 (ip), vehicle: methylcellulose (MC)) is reported as 61 % of control, the T/C [6] is reported as 66 % of control and the T/C (dose: 225.0 mg/kg/injection, schedule: Q01DX011 (ip), vehicle: methylcellulose (MC)) is reported as 54 % of control.
`CSc1ncc(Br)c(Nc2ccc(Br)cc2)n1` was tested, and the T/C [1] was 94 % of control, the T/C [2] was 103 % of control and the T/C [3] was 123 % of control. For the same compound, the T/C [4] was 114 % of control and the T/C [5] was 86 % of control.
With `CC(=O)N[C@H]1CC[C@H]2[C@@H]3CCC4=CC(=O)CC[C@]4(C)[C@H]3CC[C@]12C` the T/C (dose: 5.0 mg/kg/injection, schedule: Q01DX011 (sc), vehicle: steriod suspending solution) was 99 % of control, the T/C (dose: 50.0 mg/kg/injection, schedule: Q01DX011 (sc), vehicle: steriod suspending solution) was 111 % of control and the T/C (dose: 100.0 mg/kg/injection, schedule: Q01DX011 (sc), vehicle: steriod suspending solution) was 89 % of control.
For `CC(=O)OCC(=O)[C@@]1(O)CC[C@H]2[C@@H]3C=C(C)C4=CC(=O)CC[C@]4(C)[C@H]3[C@@H](O)C[C@@]21C`, the T/C (dose: 11.2 mg/kg/injection, schedule: Q01DX011 (sc), vehicle: steriod suspending solution) was 36 % of control and 57 % of control, the T/C (dose: 22.5 mg/kg/injection, schedule: Q01DX011 (sc), vehicle: steriod suspending solution) was 42 % of control and 50 % of control and the T/C (dose: 45.0 mg/kg/injection, schedule: Q01DX011 (sc), vehicle: steriod suspending solution) was 23 % of control and 24 % of control. The T/C (dose: 90.0 mg/kg/injection, schedule: Q01DX011 (sc), vehicle: steriod suspending solution) was 15 % of control and 16 % of control and the T/C (dose: 180.0 mg/kg/injection, schedule: Q01DX011 (sc), vehicle: steriod suspending solution) was 10 % of control.
With `CSc1nc(Cl)cc(NC(=O)CCl)n1` the T/C (dose: 60.0 mg/kg/injection, schedule: Q01DX011 (ip), vehicle: carboxymethylcellulose (CMC)) was 124 % of control.
In the case of `CC1CC2(C)C(=CC1=O)CCC1C3CCC(C)(O)C3(C)CC(O)C12F` (configuration not stated), the T/C (dose: 200.0 mg/kg/injection, schedule: Q01DX011 (sc), vehicle: steriod suspending solution) is reported as 106 % of control and the T/C (dose: 400.0 mg/kg/injection, schedule: Q01DX011 (sc), vehicle: steriod suspending solution) is reported as 92 % of control.
`CC(C)Cn1cnc2c(SCCc3ccccc3)nc(N)nc21` was tested, and the T/C [6] was 52 % of control, the T/C (dose: 150.0 mg/kg/injection, schedule: Q01DX011 (ip), vehicle: methylcellulose (MC)) was 34 % of control and the T/C (dose: 300.0 mg/kg/injection, schedule: Q01DX011 (ip), vehicle: methylcellulose (MC)) was 3 % of control.
With `C[N+](C)(C)c1ncnc2c1ncn2C1CCCCO1` (configuration not stated) the T/C (dose: 33.0 mg/kg/injection, schedule: Q01DX011 (ip), vehicle: saline) was 58 % of control and the T/C (dose: 100.0 mg/kg/injection, schedule: Q01DX011 (ip), vehicle: saline) was 12 % of control.
With `CCC(=O)N(CC)CC` the T/C (dose: 250.0 mg/kg/injection, schedule: Q01DX011 (ip), vehicle: other) was 100 % of control.
For `COC(=O)c1nc(-c2ccc3c(n2)C(=O)C(N)=C(OC)C3=O)c(N)c(-c2ccc(OC)c(OC)c2O)c1C`, the T/C (dose: 0.31 mg/kg/injection, schedule: Q01DX011 (ip), vehicle: other) was 42 % of control, the T/C (dose: 0.63 mg/kg/injection, schedule: Q01DX011 (ip), vehicle: other) was 14 % of control and the T/C (dose: 1.25 mg/kg/injection, schedule: Q01DX011 (ip), vehicle: other) was 1 % of control. The T/C (dose: 6.0 mg/kg/injection, schedule: Q01DX006 (ip), vehicle: water) was 40 % of control and the T/C (dose: 12.5 mg/kg/injection, schedule: Q01DX006 (ip), vehicle: water) was 7 % of control.
